Tests used:
hyaluronidase (HAase) = assay: in vitro dose screening assay of HAase inhibitors; format: biochemical
Protocol: Antioxidants having known hyaluronidase inhibition properties were tested in vitro to establish baseline inhibition. Referring now to the drawings, selected results are shown in the table of FIG. 1, with the known HAase inhibitor Apigenin as a positive control.

HAase [1] = assay: HA gel model of HAase inhibition-based kinetic viscoelastic profile measurement; format: biochemical
Protocol: Hyaluronidase inhibition activity was evaluated in a HA gel model of HAase inhibition-based kinetic viscoelastic profile measurement. According to the experimental design, various individual controls and known HAase inhibitors were tested (alone and in combination). In this model, HAase was introduced into a gel composed of HA. Upon exposure, the HAase decomposes the HA gel in a time dependent manner which is directly correlated to the viscosity of the HA gel. Test compounds were introduced to the HA gel system and degree of HAase inhibition as gauged by measuring viscosity (change in viscosity) over time.
At each time point, % of Viscosity Loss is compared to the viscosity of HA gel without enzyme.
To describe the synergy clearly, the “inhibition factor,” below, reflects the extent of inhibition of HAase activity, where n=viscosity: […]

HAase [2] = conditions: stated as known; cited from earlier work
[3] = solubility / formulation observation; format: physicochemical

SMILES	inhibition of HAase (in words) (hyaluronidase (HAase); concentration of 0.05 mg/mL)	dose effect on HAase inhibition (hyaluronidase (HAase); up to testing dose of 0.5 mg/ml)	inhibition of hyaluronidase in gel model (in words) (HAase [1])	inhibition of HAase (in words) (hyaluronidase (HAase); in vitro assay)	inhibition of HAase (known) (HAase [2])	solubility (in words) [3]
CC1(C)[C@@H](O[C@H]2O[C@H](C(=O)[O-])[C@@H](O)[C@H](O)[C@H]2O[C@@H]2O[C@H](C(=O)[O-])[C@@H](O)[C@H](O)[C@H]2O)CC[C@]2(C)[C@H]3C(=O)C=C4[C@@H]5C[C@@](C)(C(=O)O)CC[C@]5(C)CC[C@@]4(C)[C@]3(C)CC[C@@H]12.[K+].[K+] [dipotassium glycyrrhizate]	mild inhibitors	no clear dose effect	very mild effect			
O=C(OC[C@H]1O[C@@H](OC(=O)c2cc(O)c(O)c(OC(=O)c3cc(O)c(O)c(O)c3)c2)[C@H](OC(=O)c2cc(O)c(O)c(OC(=O)c3cc(O)c(O)c(O)c3)c2)[C@@H](OC(=O)c2cc(O)c(O)c(OC(=O)c3cc(O)c(O)c(O)c3)c2)[C@@H]1OC(=O)c1cc(O)c(O)c(OC(=O)c2cc(O)c(O)c(O)c2)c1)c1cc(O)c(O)c(OC(=O)c2cc(O)c(O)c(O)c2)c1 [tannic acid]				very potent inhibitor	super-efficient inhibitor	highly insoluble

Reference: US20180177706A1, “COMPOSITIONS CONTAINING HYALURONIC ACID AND SYNERGISTIC ANTI-HYALURONIDASE ACTIVES” (L'OREAL, priority 2016, published 2018)
